# Patent publication US11925612B2, “Bactericidal and virucidal pharmaceutical composition” (Quimica Luar SRL, priority 2015, dated 2024)
# Tests used:
# Assay in all cases: Bactericidal test: CFU count after incubation in PBS buffer
# Enterobacter aerogenes = type: cell-based; conditions: 4-hour contact at 37° C., control 1,000,000, Example 8
# [1] = system: Bacillus subtilis (Gram+); type: cell-based; conditions: 4-hour contact at 37° C., control 500,000, Example 8
# [2] = system: Enterococcus faecalis (Gram+); type: cell-based; conditions: 4-hour contact at 37° C., control 100,000, Example 8
# P. aeruginosa = type: cell-based, Pseudomonas aeruginosa; conditions: for P. aeruginosa count (UFC/mL ± 10) As a function of treatment time: 37° C., control 2,000,000, Example 6; for Colony count (UFC/mL ± 10) Pseudomonas: Example 9; for Colony count (UFC/mL ± 10) P. aeruginosa: 4-hour at 37° C., control 3,000,000, Example 15
smiles,measurement,setting,value
"CC(C)Cc1ccc(C(C)C(=O)O)cc1.[Na] (stereo not drawn) [IBU-Na, SODIUM IBUPROFEN]",Colony count (UFC/mL ± 10),Enterobacter aerogenes; IBU-Na 50 mM,450 UFC/mL
same,Colony count (UFC/mL ± 10),Enterobacter aerogenes; IBU-Na 100 mM,10 UFC/mL
same,Colony count (UFC/mL ± 10),[1]; IBU-Na 50 mM,250 UFC/mL
same,Colony count (UFC/mL ± 10),[1]; IBU-Na 100 mM,10 UFC/mL
same,Colony count (UFC/mL ± 10),[2]; IBU-Na 50 mM,180 UFC/mL
same,Colony count (UFC/mL ± 10),[2]; IBU-Na 100 mM,10 UFC/mL
same,P. aeruginosa (UFC/mL ± 10),"P. aeruginosa; IBU 10 mM, 4 h at 37° C., control 1,700,000, Example 4","760,000 UFC/mL"
same,P. aeruginosa (UFC/mL ± 10),"P. aeruginosa; IBU 20 mM y NaCl (1M), preincubated 1 hour with human Albumin 5 mg/mL, 4 hours at 37° C., control 1,000,000, Example 16",1500 UFC/mL
same,P. aeruginosa (UFC/mL ± 10),"P. aeruginosa; IBU 20 mM, 4 h at 37° C., control 1,700,000, Example 4","300,000 UFC/mL"
same,P. aeruginosa (UFC/mL ± 10),"P. aeruginosa; IBU 50 mM, 4 h at 37° C., control 1,700,000, Example 4",50 UFC/mL
same,P. aeruginosa count (UFC/mL ± 10) As a function of treatment time,"P. aeruginosa; IBU-Na 1 mM, 1 hour","2,000,000 UFC/mL"
same,P. aeruginosa count (UFC/mL ± 10) As a function of treatment time,"P. aeruginosa; IBU-Na 1 mM, 4 hours","2,000,000 UFC/mL"
same,P. aeruginosa count (UFC/mL ± 10) As a function of treatment time,"P. aeruginosa; IBU-Na 1 mM, Overnight (O.N.)","2,000,000 UFC/mL"
same,P. aeruginosa (UFC/mL ± 10),"P. aeruginosa; IBU-Na 1 mM, Population A (control 200,000), 4 h at 37° C., Example 5","200,000 UFC/mL"
same,P. aeruginosa (UFC/mL ± 10),"P. aeruginosa; IBU-Na 1 mM, Population B (control 20,000), 4 h at 37° C., Example 5","20,000 UFC/mL"
same,P. aeruginosa (UFC/mL ± 10),"P. aeruginosa; IBU-Na 1 mM, Population C (control 2,000), 4 h at 37° C., Example 5","2,000 UFC/mL"
same,P. aeruginosa count (UFC/mL ± 10) As a function of treatment time,"P. aeruginosa; IBU-Na 2.5 mM, 1 hour","2,000,000 UFC/mL"
same,P. aeruginosa count (UFC/mL ± 10) As a function of treatment time,"P. aeruginosa; IBU-Na 2.5 mM, Overnight (O.N.)","2,000,000 UFC/mL"
same,P. aeruginosa (UFC/mL ± 10),"P. aeruginosa; IBU-Na 5 mM + ClNa (1M), 1 hour, 37° C. pH 6.5, control 800,000, Example 13","16,000 UFC/mL"
same,P. aeruginosa (UFC/mL ± 10),"P. aeruginosa; IBU-Na 5 mM + ClNa (1M), 2 hours, 37° C. pH 6.5, control 800,000, Example 13","13,000 UFC/mL"
same,P. aeruginosa (UFC/mL ± 10),"P. aeruginosa; IBU-Na 5 mM + ClNa (1M), 4 hours, 37° C. pH 6.5, control 800,000, Example 13","8,500 UFC/mL"
same,Colony count (UFC/mL ± 10) Pseudomonas,"P. aeruginosa; IBU-Na 5 mM, 4 hours at 37° C., control 1,700,000","1,700,000 UFC/mL"
same,P. aeruginosa (UFC/mL ± 10),"P. aeruginosa; IBU-Na 5 mM, Population A (control 200,000), 4 h at 37° C., Example 5","150,000 UFC/mL"
same,P. aeruginosa (UFC/mL ± 10),"P. aeruginosa; IBU-Na 5 mM, Population B (control 20,000), 4 h at 37° C., Example 5","17,000 UFC/mL"
same,P. aeruginosa (UFC/mL ± 10),"P. aeruginosa; IBU-Na 10 mM + ClNa (1M), 1 hour, 37° C. pH 6.5, control 800,000, Example 13",30 UFC/mL
same,P. aeruginosa (UFC/mL ± 10),"P. aeruginosa; IBU-Na 10 mM + ClNa (1M), 2 hours, 37° C. pH 6.5, control 800,000, Example 13",30 UFC/mL
same,Colony count (UFC/mL ± 10) Pseudomonas,"P. aeruginosa; IBU-Na 10 mM, 4 hours at 37° C., control 1,700,000","760,000 UFC/mL"
same,P. aeruginosa count (UFC/mL ± 10) As a function of treatment time,"P. aeruginosa; IBU-Na 10 mM, Overnight (O.N.)","900,000 UFC/mL"
same,P. aeruginosa (UFC/mL ± 10),"P. aeruginosa; IBU-Na 10 mM, Population B (control 20,000), 4 h at 37° C., Example 5","3,500 UFC/mL"
same,P. aeruginosa (UFC/mL ± 10),"P. aeruginosa; IBU-Na 10 mM, Population C (control 2,000), 4 h at 37° C., Example 5",800 UFC/mL
same,P. aeruginosa (UFC/mL ± 10),"P. aeruginosa; IBU-Na 10 mM, Without ionic strength, 4 hours at 37° C., control 1,700,000, Example 12","760,000 UFC/mL"
same,Colony count (UFC/mL ± 10) P. aeruginosa,P. aeruginosa; IBU-Na 12.5 mM + ClNa (1M),250 UFC/mL
same,P. aeruginosa (UFC/mL ± 10),"P. aeruginosa; IBU-Na 20 mM, Population A (control 200,000), 4 h at 37° C., Example 5","20,000 UFC/mL"
same,P. aeruginosa (UFC/mL ± 10),"P. aeruginosa; IBU-Na 20 mM, Population B (control 20,000), 4 h at 37° C., Example 5",400 UFC/mL
same,P. aeruginosa (UFC/mL ± 10),"P. aeruginosa; IBU-Na 20 mM, Population C (control 2,000), 4 h at 37° C., Example 5",50 UFC/mL
same,Colony count (UFC/mL ± 10) P. aeruginosa,P. aeruginosa; IBU-Na 25 mM + ClNa (1M),10 UFC/mL
same,P. aeruginosa count (UFC/mL ± 10) As a function of treatment time,"P. aeruginosa; IBU-Na 25 mM, 1 hour","500,000 UFC/mL"
same,Colony count (UFC/mL ± 10) Pseudomonas,"P. aeruginosa; IBU-Na 25 mM, 4 hours at 37° C., control 1,700,000","200,000 UFC/mL"
same,P. aeruginosa count (UFC/mL ± 10) As a function of treatment time,"P. aeruginosa; IBU-Na 25 mM, 4 hours","250,000 UFC/mL"
